Here are results for 18 compounds from paper PMC5636616, “Studies on the Interaction of the Histone Demethylase KDM5B with Tricarboxylic Acid Cycle Intermediates” (Journal of Molecular Biology, 2017).

For data set [1], the target named is T1, KDM5B (Homo sapiens, UniProt Q9UGL1).
T1 construct: purified recombinant KDM5B (produced in Sf9 insect cells, M1-R822); made in house; host or cells: Sf9 insect cells
T1 sequence (Q9UGL1 1-822): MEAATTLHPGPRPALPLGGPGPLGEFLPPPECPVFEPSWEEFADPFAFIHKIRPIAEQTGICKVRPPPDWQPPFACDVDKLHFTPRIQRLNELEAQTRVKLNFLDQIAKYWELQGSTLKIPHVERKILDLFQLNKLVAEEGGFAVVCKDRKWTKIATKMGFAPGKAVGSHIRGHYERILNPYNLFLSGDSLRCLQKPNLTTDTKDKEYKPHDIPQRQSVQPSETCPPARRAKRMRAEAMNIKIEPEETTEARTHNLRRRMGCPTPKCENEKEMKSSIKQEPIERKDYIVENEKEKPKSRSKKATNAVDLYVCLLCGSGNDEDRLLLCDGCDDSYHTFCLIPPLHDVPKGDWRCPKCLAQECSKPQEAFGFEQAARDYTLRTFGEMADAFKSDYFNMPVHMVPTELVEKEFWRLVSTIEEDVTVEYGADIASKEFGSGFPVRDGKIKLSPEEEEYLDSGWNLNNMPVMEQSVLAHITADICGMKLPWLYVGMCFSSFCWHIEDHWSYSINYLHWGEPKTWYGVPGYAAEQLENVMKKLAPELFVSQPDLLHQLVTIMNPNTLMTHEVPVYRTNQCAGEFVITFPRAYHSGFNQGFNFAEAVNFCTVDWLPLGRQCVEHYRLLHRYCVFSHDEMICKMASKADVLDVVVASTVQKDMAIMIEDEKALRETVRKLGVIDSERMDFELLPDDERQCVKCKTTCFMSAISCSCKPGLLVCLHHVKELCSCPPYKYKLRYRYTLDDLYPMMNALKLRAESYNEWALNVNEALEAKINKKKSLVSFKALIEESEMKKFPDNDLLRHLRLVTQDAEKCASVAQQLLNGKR
The settings on record: FDH-coupled assay, truncated KDM5B, cited from earlier work.

The next data set concerns KDM4A. Details: method as in PMID 21460794. The settings on record: read-out: Km^app(2OG); cited from earlier work.
Another data set concerns KDM4C. Set-up: method as in PMID 21460794. The following applies: read-out: Km^app(2OG); cited from earlier work.
In a further data set the test system is KDM4E. The following applies: cited from earlier work; for IC50: enzyme concentration 2 μM.
The subject of another data set is KDM2A. Set-up: method as in PMID 21460794. The following applies: cited from earlier work; for IC50: enzyme concentration 2 μM.
Another data set deals with PHD2. The following applies: cited from earlier work.
In a further data set the test system is FIH. The settings on record: cited from earlier work.
A further data set relates to BBOX. The settings on record: cited from earlier work; for IC50: enzyme concentration 0.025 μM.
The subject of a further data set is ABH2. Set-up: method as in PMID 21460794. The following applies: read-out: Km^app(2OG); cited from earlier work.
The next data set relates to TET1. The settings on record: cited from earlier work.
Another data set relates to TET2. The following applies: cited from earlier work.
Data set [2] has as its target T1, KDM5B. The data set is described as follows: KDM5B inhibition assay, MALDI-TOF-MS (IC50). The class given is biochemical.
Data set [3] relates to T2, over-expressed KDM5B in U2-OS cells.
T2 construct: expressed in transfected cells; host or cells: U2-OS osteosarcoma cells, transient transfection with pCDNA5-FRT-TO-3FLAG vector
As to the kind of experiment: Immunofluorescence assay of H3K4me3 demethylation in U2-OS cells overexpressing KDM5B. The class given is cell-based, human. The following applies: for inhibition of KDM5B-mediated H3K4me3 demethylation (IF): U2-OS cells overexpressing Flag-tagged WT KDM5B, 24 h treatment, esters dosed up to 5–10 mM. The procedure: EC50 curves for cells overexpressing Flag-tagged KDM5B. […] Results for dimethyl-2OG (a), dimethyl-succinate (b), dimethyl-D-2HG (c), dimethyl-L-2HG (d), octyl-D-2HG (e), octyl-L-2HG (f), and KDOAM-25 (g). Dashed lines represent IF levels in non-inhibitor controls.
The cellular effects of dimethyl ester precursors of TCA cycle-related metabolites as potential inhibitors of H3K4me3 demethylation were then assessed. We used an established immunofluorescence (IF) procedure with ectopically overexpressed wild-type KDM5B (WT KDM5B) in U2-OS cells and anti-H3K4me3 antibody monitoring for changes in H3K4me3 methylation levels. […] Cells with overexpressed KDM5B were treated with different concentrations of the TCA cycle-related pro-drug esters (previously established as cell permeable in other cell-based studies), [51], [52], [53], [54] for 24 h, the H3K4me3 levels were then analyzed in the transfected cells. The reported KDM5B inhibitor KDOAM-25 ((2)-((((2)-(((2)-(dimethylamino)ethyl)(ethyl)amino)-(2)-oxoethyl)amino)methyl)isonicotinamide) was used as a positive control for inhibition, [55].
Immunofluorescent cell-based assays were performed as reported. The human U2-OS osteosarcoma cells were cultured as a monolayer in Dulbecco's modified Eagle's medium (Invitrogen) supplemented with 10% heat-inactivated fetal bovine serum (Life Technologies) and 1% Glutamax. […] Cells were transiently transfected using cDNA and Lipofectamine 3000 (Life Technologies). Four hours after transfection, the cells were subjected to treatment with serial dilutions of compound. After 24 h, the cells were fixed with 4% formaldehyde and stained with anti-Flag antibody (Sigma F3165), an anti-methylated histone antibody (H3K4me3 DiagenodeC15410003). The cells were then stained with secondary antibodies [Alexa Fluor 488 and Alexa Fluor 568-labeled (Life Technologies)] and 4’,6-diamidino-2-phenylindole. Image acquisition was conducted using Operetta High Content Imaging System (PerkinElmer), and image analysis was performed using the Columbus software (PerkinElmer). A minimum threshold for anti-Flag intensity was set to ensure that only cells highly producing the demethylase were analyzed.

The next data set has as its system isolated KDM5B. Details: method as in PMID 28262558. The following applies: AlphaScreen assay; cited from earlier work. (Alpha assays give light when donor and acceptor beads are brought close together.)
Data set [4] deals with T1, KDM5B. As to the kind of experiment: KDM5B kinetic assays, MALDI-TOF-MS (Km, Ki with respect to 2OG). The class given is biochemical. The settings on record: for mode of inhibition: with respect to 2OG.
A further data set has as its system U2-OS cells. As to the kind of experiment: Toxicity to U2-OS cells in the cellular assay. It is filed as cell-based, human. The following applies: data not shown.
Setting [5] is: 0.6 μM KDM5B, 3 μM 2OG, 5 μM H3K4me2(1–21), 10 μM Fe(II), 500 μM L-ascorbate, pH 7.5, errors 95% confidence intervals.

“Also recorded” adds a separate entry of the source. Read-outs that look alike come from different tables or passages of the source. Bounds are passed on as bounds.

The term Km denotes the concentration of substrate that gives half-maximal velocity. By IC50 is commonly meant the point on the concentration scale where inhibition reaches its midpoint. By inhibition is commonly meant how much of the control response was suppressed. Broadly, the Ki is a measure of affinity in units of concentration, obtained from inhibition or displacement.

Turning to `O=C(O)CCC(=O)C(=O)O` [2OG, 2-oxoglutarate], the Michaelis constant (Km) on KDM5B [1] (read-out: Km^app(2OG)) is 6 µM; with KDM4A, 6 µM; with KDM4C it was 4 µM; in the data set on KDM4E (read-out: Km^app(2OG)), 13.2 µM; in the data set with KDM2A (read-out: Km^app(2OG)), 12.5 µM; in the data set on PHD2 (read-out: Km^app(2OG)), 13 ± 2 µM. Also, the Km was 110 ± 20 µM in the data set with FIH (read-out: Km^app(2OG)); 470 µM in the data set with BBOX (read-out: Km^app(2OG)); 10 µM with ABH2; 55 ± 20 µM in the data set with TET1 (read-out: Km^app(2OG)); 60 ± 15 µM in the data set on TET2 (read-out: Km^app(2OG)).
As to `O=C(O)CC(O)(CC(=O)O)C(=O)O` [Citrate], the IC50 result on KDM5B [2] (setting [5]) is “Inactive”; on KDM5B [2] (read-out: IC50), more than 1000 µM. Moreover, the inhibition at 1000 µM at KDM5B [2] (read-out: inhibition at 1 mM) is 18%.
Regarding `O=C(O)CC[C@@H](O)C(=O)O` [D-2HG, D-2-hydroxyglutarate], the figures for the IC50 in the data set with KDM2A, in the data set on BBOX and in the data set with TET2 were 106 ± 22 µM, 13200 µM and 5000 µM, respectively.
On to `O=C(O)/C=C/C(=O)O` [Fumarate], for which the IC50 is 210 ± 80 µM against KDM5B [2]; 2.3 µM with KDM4E; 3 µM in the data set with PHD2; more than 1000 µM in the data set with FIH; 390 ± 160 µM in the data set with TET1; 400 ± 70 µM in the data set with TET2.
In the case of `CCN(CCN(C)C)C(=O)CNCc1cc(C(N)=O)ccn1` [KDOAM-25, (2)-((((2)-(((2)-(dimethylamino)ethyl)(ethyl)amino)-(2)-oxoethyl)amino)methyl)isonicotinamide], the “inhibition of KDM5B-mediated H3K4me3 demethylation (IF)” value (shortened to “inhibition … (IF)”) in data set [3] was “manifested the expected levels of inhibition; also recorded: observe inhibition”. Further, the “compound concentration at which H3K4me3 fluorescence reaches levels of KDM5B Mut” value in data set [3] (U2-OS cells overexpressing WT KDM5B, 24 h) is recorded as 1 mM. Also, in the data set with isolated KDM5B, the IC50 is 0.019 µM.
Take `O=C(O)CC[C@H](O)C(=O)O` [L-2HG, L-2-hydroxyglutarate]: the IC50 with KDM2A is 48 ± 15 µM; in the data set with FIH (enzyme concentration 1 μM) it was 189 ± 34 µM; in the data set on BBOX, 142 ± 30 µM; in the data set with TET1, 1000 µM; with TET2, 1600 µM.
On to `O=C(O)CC(O)C(=O)O` (centres unmarked) [Malate, malate], for which the half-inhibitory concentration (IC50) on KDM5B [2] (read-out: IC50) was found to be 127 ± 72 µM.
Regarding `O=C(O)CC(=O)C(=O)O` [Oxaloacetate], on KDM5B [2] (read-out: IC50), the half-inhibitory concentration (IC50) turned out to be 15 ± 10 µM. Besides, the “Vm^app” value at KDM5B [4] (in presence of 15 μM oxaloacetate) was 0.0066 µM/s; on KDM5B [4] (in presence of 50 μM oxaloacetate), 0.0070 µM/s; on KDM5B [4] (in presence of 100 μM oxaloacetate), 0.0069 µM/s. Moreover, the mode of inhibition at KDM5B [4] is listed as 2OG competitive manner.
For `CC(=O)C(=O)O` [Pyruvate, pyruvate], the IC50 entry on KDM5B [2] (setting [5]) was “very weak KDM5B inhibitor”; at KDM5B [2] (read-out: IC50) it was 703 ± 26 µM.
`O=C(O)CCC(=O)O` [Succinate, succinate]: the concentration for half-maximal inhibition (IC50) on KDM5B [2] (read-out: IC50) was 62 ± 19 µM; in the data set on KDM4E, 320 µM; in the data set with PHD2, 19 µM; in the data set with FIH, more than 1000 µM; in the data set with TET1, 540 ± 100 µM; with TET2 it was 570 ± 190 µM. Moreover, the inhibitory constant (Ki) at KDM5B [4] (competitive inhibition model, shared/global fit, read-out: Ki (best-fit value, GraphPad Prism global fit)) is 26.8 µM. Moreover, the “Vm^app” value on KDM5B [4] (in presence of 30 μM succinate) came to 0.0044 µM/s; at KDM5B [4] (in presence of 100 μM succinate), 0.0046 µM/s; on KDM5B [4] (in presence of 300 μM succinate), 0.0046 µM/s. The compound also had a mode of inhibition at KDM5B [4] of 2OG competitive manner.
For the compound `COC(=O)CCC(=O)C(=O)OC` [dimethyl-2OG, Dimethyl-2-oxoglutarate], the “inhibition … (IF)” value in data set [3] is reported as “do not inhibit; also recorded: no inhibition of KDM5B activity was observed”. Also, the “change in H3K4me3 levels / KDM5B activity in response to compound” value in data set [3] (U2-OS cells overexpressing KDM5B, increasing concentrations, 24 h) is reported as “No decrease in the H3K4me3 levels was observed; also recorded: did not show any effect”.
For the compound `COC(=O)CC[C@@H](O)C(=O)OC` [dimethyl-D-2HG], the “inhibition … (IF)” value in [3] is reported as “do not inhibit; also recorded: no inhibition of KDM5B activity was observed”.
The same measure, in the same setting: under `COC(=O)CC[C@H](O)C(=O)OC` [dimethyl-L-2HG] stands “do not inhibit; also recorded: no inhibition of KDM5B activity was observed”; under `COC(=O)CCC(=O)OC` [dimethyl-succinate, dimethylsuccinate], “do not inhibit”.
As to `COC(=O)/C=C/C(=O)OC` [dimethylfumarate], the “inhibition … (IF)” value in data set [3] is “no inhibition of KDM5B activity was observed”; in [3] (listed as Dimethylfumarate) it was “did not show any inhibition at lower concentrations”. For the same compound, the toxic concentration entry in the data set on U2-OS cells was “higher than 400 μM”.
As to `CCCCCCCCOC(=O)[C@H](O)CCC(=O)O` [octyl-D-2HG], in data set [3], the “inhibition … (IF)” value is on record as “do not inhibit; also recorded: no inhibition of KDM5B activity was observed”.
Regarding `CCCCCCCCOC(=O)[C@@H](O)CCC(=O)O` [octyl-L-2HG], the “inhibition … (IF)” value in data set [3] is reported as “do not inhibit; also recorded: no inhibition of KDM5B activity was observed”.
For the compound “H3K4me2(1–21): 21-mer histone H3 peptide fragment dimethylated at lysine-4, KDM5B substrate [reference compound]”, the Michaelis constant (Km) in the data set with KDM5B [4] (KDM5B(1–822), 10 μM 2OG, read-out: Km^app(H3K4me2(1–21))) is approximately 0.5 µM; with KDM5B [1] (read-out: Km^app for H3K4me2(1–21)), 0.85 µM.
